In patent US20250346938A1, “ATP-DEPENDENT C-TERMINAL MODIFICATION OF POLYPEPTIDES” (Wisconsin Alumni Research Foundation, priority 2024, published 2025):
Ends that are not written are not given here.

Assays:
HsM ccB = test: H. somni MccB-catalyzed peptide thioester synthesis; format: biochemical; details: for thioesterification: Mesna as thiol donor
Protocol: Reactions were incubated for 16 hours at room temperature and quenched with addition of an equivalent volume of 0.6% TFA. […] To screen the ability of H. somni M ccB to catalyze thioesterification of HsLACE peptides, reactions contained M ccB ([…]), ATP (5 mM), M gCl2 (5 mM), peptide substrate (0.25 mM), 25 mM M esna or AcCysNHM e, and reaction buffer (100 mM HEPES, pH 8.0).
H. somni M ccB-catalyzed peptide thioester synthesis. For screening the activity of HsM ccB on HsTeCH, HsLACE1-4, and LACE substrate peptide, […] reactions were prepared that contained 100 mM HEPES, pH 8.0, HsM ccB ([…]), HsTeCH, HsLACE1-4, or LACE peptide ([…]), ATP (5 mM), M gCl2 (5 mM), and thiol (M esna or AcCysNHMe, 25 mM). Reactions were initiated by addition of HsM ccB and incubated for 16-20 h at room temperature. Raw data are available in the Dryad repository at DOI: 10.5061/dryad.c59zw3rkb.

M ccB [1] = test: Screening nucleophiles for MccB-mediated modification of MccA-N7G (LC-TOF MS); format: biochemical, E. coli; details: HPLC-MS
Protocol: Screening nucleophiles for MccB-mediated ligation of synthetic peptide substrates. Nucleophile were dissolved in water and adjusted to neutral pH using paper pH strips (EM D Millipore). Solutions were stored at −80° C. until further use, unless otherwise noted. M ccA-N7G (250 μM) was incubated with 5 μM MccB, 5 mM ATP, and the corresponding concentration of nucleophile in reaction buffer (25 mM Tris pH 8.0, 10 mM M gCl2). Reactions were incubated for 16 hours at room temperature and quenched with addition of an equivalent volume of 0.6% TFA. […] Extracted ion chromatogram (EIC) peak areas were calculated using Agilent TOF Quantitative Analysis v11.0. Percent conversion of substrate to nucleophile-modified product was calculated using the integrated peak areas from the substrate peptide EIC and production EIC using the formula shown below.

HpM ccB = test: C-terminal thioesterification of MccA-N7G peptides by H. pylori MccB (LC-MS); format: biochemical; details: HpMccB, ATP, Mesna, 16 h
Chain of HpM ccB (as listed by the source): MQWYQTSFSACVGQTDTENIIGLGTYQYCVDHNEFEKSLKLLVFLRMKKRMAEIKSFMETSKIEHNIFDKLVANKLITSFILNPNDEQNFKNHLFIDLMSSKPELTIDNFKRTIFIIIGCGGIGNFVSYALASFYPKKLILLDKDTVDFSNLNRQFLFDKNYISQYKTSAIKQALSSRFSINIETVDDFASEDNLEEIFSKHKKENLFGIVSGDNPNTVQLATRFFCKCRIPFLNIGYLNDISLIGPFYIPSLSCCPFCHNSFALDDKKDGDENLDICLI

E. coli M ccB [2] = test: LC-TOF MS analysis of MccB-catalyzed AMPylation of MccA variants; format: biochemical; details: for formation of stably AMPylated product: HPLC-MS assay
Protocol: LC-TOF MS analysis of M ccB reactions with synthetic peptide substrates. […] Reactions were incubated for 16 hours at room temperature and quenched with addition of an equivalent volume of 0.6% TFA. These reaction conditions were used for M ccBs from E. coli, H. pylori, L. johnsonii, and H. somni.
LC-TOF MS analysis of M ccB-catalyzed N-AM Pylation of M ccA positional scanning peptide library. MccA variants were synthesized individually in-house (according to Solid-phase peptide synthesis) or were purchased from Peptide2.0. […] Reactions were incubated for 16 hours at room temperature and quenched with addition of an equivalent volume of 0.6% TFA. […] Percent conversion was calculated using peak areas from substrate and product EICs. Raw data are available in the Dryad repository at DOI: 10.5061/dryad.c59zw3rkb.

E. coli M ccB [3] = test: Enzyme-coupled pyrophosphate (PPi) release assay, E. coli MccB; format: biochemical; details: MccA C-terminal variant as substrate for MccB
Description: FIG. 31. Enzyme-coupled pyrophosphate assay for detection of M ccB-catalyzed pyrophosphate release. M ccB-catalyzes release of pyrophosphate, which is converted to phosphate by inorganic pyrophosphatase (PPiase). Purine nucleoside phosphorylase (PN Pase) uses phosphate as a substrate to convert 2-amino-6-mercapto-7-methylpurine ribonucleoside (M ESG) to ribose 1-phosphate and 2-amino-6-mercapto-7-methylpurine, which absorbs at 360 nm.
Purine nucleoside phosphorylase (PNP)/inorganic pyrophosphate (IP)-coupled kinetic assays. The kinetics of M ccB-catalyzed adenylation were characterized using an enzyme-coupled assay for detecting formation of pyrophosphate EnzCheck Pyrophosphate Assay Kit (Thermo Fisher Scientific) (FIG. 31). To screen M ccB for adenylation activity with C-terminal variants of MccA, 5 μM of the appropriate MccB variant was incubated with 0.25 mM of each M ccA variant in a reaction with 0.25 mM ATP, 5 mM M gCl2, 0.5 U/mL purine nucleoside phosphorylase (PNP), and 0.5 U/mL inorganic pyrophosphatase (IP). To screen E. coli, H. pylori, and L. johnsonii M ccB homologs for adenylation activity with MccA homologs, 5 μM of the appropriate MccB enzyme was incubated with 0.25 mM of each M ccA variant in a reaction with 0.25 mM ATP, 5 mM M gCI2, 0.5 U/mL purine nucleoside phosphorylase (PNP), and 0.5 U/mL inorganic pyrophosphatase (IP). Reactions containing HpM ccA-N7G and LjM ccA-N 7G peptides also contained 5 mM M esna and 5 mM TCEP. To collect steady-state kinetics data for individual peptide substrates, the peptide concentration was varied from 0-600 μM in a reaction with 5 μM MccB, 0.25 mM ATP, 5 mM MgCl2, 0.5 U/mL purine nucleoside phosphorylase (PNP), and 0.5 U/mL inorganic pyrophosphatase (IP). […] We therefore repeated measurements for the MccA-N7G peptide using an MccB concentration of […] and a substrate concentration range from 0-100 μM. Reactions were initiated with the addition of M ccB and absorbance at 360 nm was monitored using a Tecan Infinite M 200 plate reader. Initial rates of pyrophosphate production were calculated based on the initial rate of absorbance change and the resulting purine analog extinction coefficient (11,000 M-1 cm-1). Reactions were carried out in triplicate and data analysis was performed using GraphPad Prism 10.

M ccB [4] = test: MccB-catalyzed C-terminal thioesterification / Cys ligation of TeCH-tag fusion proteins (intact protein LC-MS); format: biochemical, E. coli; details: ATP (5 mM), Mesna (5 mM)
Protocol: M ccB-mediated ligation of GFP-MccA-N7G protein substrates. GFP-M ccA-N7G variant (50 μM) was incubated with 5 μM MccB, 5 mM ATP, and the appropriate concentration of cysteine or Mesna/TCEP in reaction buffer (25 mM Tris pH 8.0, 10 mM M gCl2). Reactions were incubated at room temperature for the indicated times. For labeling time course experiments, reactions were quenched with the addition of an equivalent volume of 0.6% TFA.

CNC(=O)[C@H](CS)NC(C)=O [A cCysNHM e]
thiol donor for HsMccB-catalyzed thioesterification (HsM ccB): poor thiol donor

O=C(O)Cc1ccc(S)cc1 [M PAA, 4-mercaptophenylacetic acid]
capture of O-AMPylated intermediate / modification of MccA-N7G C terminus by nucleophile (M ccB [1]): inability

C#CCCNC(=O)c1ccc(CCNN)cc1 [N-(but-3-yn-1-yl)-4-(2-hydrazineylethyl)benzamide]
capture of O-AMPylated intermediate / modification of MccA-N7G C terminus by nucleophile (M ccB [1]): unable to modify

Cl.NO [hydroxylamine, hydroxylamine hydrochloride]
capture of O-AMPylated intermediate / modification of MccA-N7G C terminus by nucleophile (M ccB [1]): efficient capture

Cys-Trp
capture of O-AMPylated intermediate / modification of MccA-N7G C terminus by nucleophile (M ccB [1]): no modification

LRLRGG (not fully specified (C-terminus))
thioesterification (HsM ccB): 18%

M KLSY RG (MKLSYRG) [HpM ccA-N7G]
conversion to C-terminal thioester, yield (HpM ccB): > 97%

MHRIMKN (listed as Lactobacillus johnsonii) [LjM ccA, at b127 probably the N7G variant is meant, reference compound]
conversion to C-terminal thioester, yield (HpM ccB): 13%

MLRLRGG (listed as Histophilus somni) [HsLACE4]
thioesterification (HsM ccB): < 1%

MRTGNAN (listed as Escherichia coli) [wild-type M ccA, reference compound]
formation of C-terminally N-AMPylated phosphoramidate product (E. coli M ccB [2]; positional scanning library, 16 h): fully converted

MccA-N7A: E. coli MccA (MRTGNAN) with C-terminal Asn varied to Ala (MRTGNAA)
stimulation of PPi formation (E. coli M ccB [3]): substantial stimulation | formation of stably AMPylated product (E. coli M ccB [2]): no stably A M Pylated product was observed

MccA-N7S: E. coli MccA (MRTGNAN) with C-terminal Asn varied to Ser (MRTGNAS)
stimulation of PPi formation (E. coli M ccB [3]): substantial stimulation | formation of stably AMPylated product (E. coli M ccB [2]): no stably A M Pylated product was observed

MccA-N7T: E. coli MccA (MRTGNAN) with C-terminal Asn varied to Thr (MRTGNAT)
stimulation of PPi formation (E. coli M ccB [3]): substantial stimulation | formation of stably AMPylated product (E. coli M ccB [2]): no stably A M Pylated product was observed

B1: protein L: protein L with C-terminal TeCH-tag (SEQ ID NO: 75) (protein)
chain: MHHHHHHKEETPETPETDSEEEVTIKANLIFANGSTQTAEFKGTFEKATSEAYAYADTLKKDNGEYTVDVADKGYTLNIKFAGKEKTPEEPKEEVTIKANLIYADGKTQTAEFKGTFEEATAEAYRYADALKKDNGEYTVDVADKGYTLNIKFAGKEKTPEEPKEEVTIKANLIYADGKTQTAEFKGTFEEATAEAYRYADLLAKENGKYTVDVADKGYTLNIKFAGKEKTPEEPKEEVTIKANLIYADGKTQTAEFKGTFAEATAEAYRYADLLAKENGKYTADLEDGGYTINIRFAGKKVDEKPEEKEQVTIKENIYFEDGTVQTATFKGTFAEATAEAYRYADLLSKEHGKYTADLEDGGYTINIRFAGGGGSGGGSMRTGNAG
modifications: C-terminal TeCH-tag; Linker and MccB recognition sequence
time to complete conversion to thioester (M ccB [4]): 16 h

B2: PTP 1B 1-321: catalytic domain of protein tyrosine phosphatase 1B with TeCH-tag (SEQ ID NO: 76) (protein)
chain: MGHHHHHHDYDIPTTENLYFQGSMEMEKEFEQIDKSGSWAAIYQDIRHEASDFPCRVAKLPKNKNRNRYRDVSPFDHSRIKLHQEDNDYINASLIKMEEAQRSYILTQGPLPNTCGHFWEMVWEQKSRGVVMLNRVMEKGSLKCAQYWPQKEEKEMIFEDTNLKLTLISEDIKSYYTVRQLELENLTTQETREILHFHYTTWPDFGVPESPASFLNFLFKVRESGSLSPEHGPVVVHCSAGIGRSGTFCLADTCLLLMDKRKDPSSVDIKKVLLEMRKFRMGLIQTADQLRFSYLAVIEGAKFIMGDSSVQDQWKELSHEDLEPPPEHIPPPPRPPKRILEPHNGGGGMRTGNAG
modifications: TeCH-tag; N-terminal His tag and TEV protease cleavage site sequence; Linker and MccB recognition sequence
time to complete conversion to thioester (M ccB [4]): 1 h

B3: a-GFP rAb (protein)
light: SDIQMTQSPSSLSASVGDRVTITCRASQSVSSAVAWYQQKPGKAPKLLIYSASSLYSGVPSRFSGSRSGTDFTLTISSLQPEDFATYYCQQSWGLITFGQGTKVEIKRTVAAPSVFIFPPSDSQLKSGTASVVCLLNNFYPREAKVQWKVDNALQSGNSQESVTEQDSKDSTYSLSSTLTLSKADYEKHKVYACEVTHQGLSSPVTKSFNRGEC
heavy: EISEVQLVESGGGLVQPGGSLRLSCAASGFNISYYSIHWVRQAPGKGLEWVASIYPYYSSTSYADSVKGRFTISADTSKNTAYLQMNSLRAEDTAVYYCARAGWVASSGMDYWGQGTLVTVSSASTKGPSVFPLAPSSKSTSGGTAALGCLVKDYFPEPVTVSWNSGALTSGVHTFPAVLQSSGLYSLSSVVTVPSSSLGTQTYICNVNHKPSNTKVDKKVEPKSCGGGGGMRTGNAGAFAGAGSK
modifications: non-natural residues; cyclised or stapled
time to complete conversion to thioester (M ccB [4]): 16 h
